# Assay results reported in PMC6017461, “Multi-Target Anti-Alzheimer Activities of Four Prenylated Compounds from Psoralea Fructus” (Molecules : A Journal of Synthetic Chemistry and Natural …, 2018).
# Molecular target: T1, amyloid β-peptide 42 (Aβ42) (Homo sapiens, UniProt P05067)
# T1 construct: gene APP; synthetic human Aβ42
# Experiment: Thioflavin T fluorescence aggregation assay with synthetic Aβ[…], positive control
# Format: biochemical
# T1 sequence (P05067 672-713 limits assumed): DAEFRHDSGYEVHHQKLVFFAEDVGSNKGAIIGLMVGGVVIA
structure (smiles),measurement,value
COc1cc(/C=C/C(=O)CC(=O)/C=C/c2ccc(O)c(OC)c2)ccc1O [curcumin],"Thioflavin T fluorescence aggregation assay with synthetic Aβ42, positive contro",which were comparable to the positive control curcumin
